Laboratory results from the supplement of paper PMC11061612.

Key:
Assay in all cases: combination Emax (second highest fraction inhibited in the dose matrix, 72 h); higher = more inhibition; extreme values may be limits of the assay
[1] = test system: LU-135 (Small Cell Lung Carcinoma)
Outline: (§1)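 Bliss excess equals the observed combination effect minus the expected value EA + EB − EA·EB, where EA and EB are the effects of each agent alone. Combination Emax is the second-highest inhibition within the matrix. Inhibition was scaled from CellTiter-Glo 2.0 luminescence, with 0 set by vehicle wells and 1 by blank wells, after 72 hours of two-drug dosing of cells plated in 1536-well plates.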

[2] = test system: NCI-H2085 (Non-Small Cell Lung Carcinoma)
Outline: as §1

[3] = test system: NCI-H82 (Small Cell Lung Carcinoma)
Outline: as §1

ES4 (Ewing's Sarcoma) = test system: ES4 (Ewing's Sarcoma)
Outline: as §1

[4] = test system: EC-GI-10 (Esophageal Squamous Cell Carcinoma)
Outline: as §1

[5] = test system: UM-UC-3 (Bladder Carcinoma)
Outline: as §1

[6] = test system: HuP-T4 (Pancreatic Carcinoma)
Outline: as §1

AGS (Gastric Carcinoma) = test system: AGS (Gastric Carcinoma)
Outline: as §1

[7] = test system: OVCA420 (Ovarian Carcinoma)
Outline: as §1

[8] = test system: TCCSUP (Bladder Carcinoma)
Outline: as §1

[9] = test system: DEL (T-Cell Non-Hodgkin's Lymphoma)
Outline: as §1

[10] = test system: CaR-1 (Colorectal Carcinoma)
Outline: as §1

[11] = test system: HO-1-N-1 (Oral Cavity Carcinoma)
Outline: as §1

[12] = test system: CCRF-CEM (T-Lymphoblastic Leukemia)
Outline: as §1

[13] = test system: TE-15 (Esophageal Squamous Cell Carcinoma)
Outline: as §1

[14] = test system: RC-K8 (B-Cell Non-Hodgkin's Lymphoma)
Outline: as §1

42-MG-BA (Glioblastoma) = test system: 42-MG-BA (Glioblastoma)
Outline: as §1

[15] = test system: COLO-205 (Colorectal Carcinoma)
Outline: as §1

NB10 (Neuroblastoma) = test system: NB10 (Neuroblastoma)
Outline: as §1

[16] = test system: B-CPAP (Thyroid Gland Carcinoma)
Outline: as §1

Row | SMILES | combination Emax [1] | combination Emax [2] | combination Emax [3] | combination Emax (ES4 (Ewing's Sarcoma)) | combination Emax [4] | combination Emax [5] | combination Emax [6] | combination Emax (AGS (Gastric Carcinoma)) | combination Emax [7] | combination Emax [8] | combination Emax [9] | combination Emax [10] | combination Emax [11] | combination Emax [12] | combination Emax [13] | combination Emax [14] | combination Emax (42-MG-BA (Glioblastoma)) | combination Emax [15] | combination Emax (NB10 (Neuroblastoma)) | combination Emax [16]
1 | CN(CCO)CC[C@H](CSc1ccccc1)Nc1ccc(S(=O)(=O)NC(=O)c2ccc(N3CCC([C@@H](O)c4ccccc4-c4ccc(Cl)cc4)CC3)cc2)cc1S(=O)(=O)C(F)(F)F [AZD4320] + CN(C)CCCOc1ccc(-c2ccc3ncc4c(c3c2)n(C2CCOCC2)c(=O)n4C)cn1 [AZD0156] (first compound max 1 µM, 7x7, partner max 1 µM) | 1 | 0.242 | 0.282 | 0.655 | 0.193 | 0.201 | 0.127 | 0.237 | 0.174 | 0.127 | 0.357 | 0.0707 | 0.156 | 1 | 0.0786 | 0.407 | 0.274 | 0.77 | 0.215 | 0.408
2 | CN(CCO)CC[C@H](CSc1ccccc1)Nc1ccc(S(=O)(=O)NC(=O)c2ccc(N3CCC([C@@H](O)c4ccccc4-c4ccc(Cl)cc4)CC3)cc2)cc1S(=O)(=O)C(F)(F)F [AZD4320] + C[C@@H]1COCCN1C2=NC(=NC(=C2)C3(CC3)[S@](=N)(=O)C)C4=C5C=CNC5=NC=C4 [AZD6738] (first compound max 1 µM, 7x7, partner max 10 µM) | 1 | 0.502 | 0.932 | 1 | 0.647 | 0.7 | 0.621 | 0.993 | 0.516 | 0.865 | 1 | 0.514 | 0.937 | 1 | 0.908 | 0.956 | 0.675 | 0.623 | 0.689 | 0.804
3 | CN(CCO)CC[C@H](CSc1ccccc1)Nc1ccc(S(=O)(=O)NC(=O)c2ccc(N3CCC([C@@H](O)c4ccccc4-c4ccc(Cl)cc4)CC3)cc2)cc1S(=O)(=O)C(F)(F)F [AZD4320] + C[C@@H](Nc1cc(F)cc(F)c1)c1cc(C(=O)N(C)C)cc2c(=O)cc(N3CCOCC3)oc12 [AZD8186] (first compound max 1 µM, 7x7, partner max 3 µM) | 1 | 0.584 | 0.231 | 0.849 | 0.333 | 0.374 | 0.515 | 0.974 | 0.261 | 0.417 | 0.888 | 0.246 | 0.735 | 1 | 0.551 | 0.999 | 0.757 | 0.776 | 0.78 | 0.612
4 | CN(CCO)CC[C@H](CSc1ccccc1)Nc1ccc(S(=O)(=O)NC(=O)c2ccc(N3CCC([C@@H](O)c4ccccc4-c4ccc(Cl)cc4)CC3)cc2)cc1S(=O)(=O)C(F)(F)F [AZD4320] + Cc1cc2ncnn2cc1Nc1ncc2c(n1)n(C1CCOCC1)c(=O)n2C [AZD7648] (first compound max 1 µM, 7x7, partner max 10 µM) | 1 | 0.177 | 0.299 | 0.619 | 0.232 | 0.121 | 0.156 | 0.318 | 0.157 | 0.268 | 0.315 | 0.125 | 0.226 | 1 | 0.0708 | 0.596 | 0.312 | 0.669 | 0.172 | 0.408
5 | CN(CCO)CC[C@H](CSc1ccccc1)Nc1ccc(S(=O)(=O)NC(=O)c2ccc(N3CCC([C@@H](O)c4ccccc4-c4ccc(Cl)cc4)CC3)cc2)cc1S(=O)(=O)C(F)(F)F [AZD4320] + Cn1cnc2c(F)c(Nc3ccc(Br)cc3Cl)c(C(=O)NOCCO)cc21 [Selumetinib] (first compound max 1 µM, 7x7, partner max 3 µM) | 1 | 0.367 | 0.265 | 0.823 | 0.51 | 0.332 | 0.544 | 1 | 0.451 | 0.405 | 0.858 | 0.294 | 0.619 | 0.993 | 0.43 | 0.993 | 0.694 | 1 | 0.887 | 0.741
6 | COc1nnc2ccc(N3CCC(c4ccc(OCCN5CCN(C)C(=O)[C@H]5C)cc4)CC3)nn12 [AZD5153] + C=CCn1c(=O)c2cnc(Nc3ccc(N4CCN(C)CC4)cc3)nc2n1-c1cccc(C(C)(C)O)n1 [AZD1775] (first compound max 1 µM, partner max 1 µM) | 1 | 0.505 | 0.914 | 0.758 | 0.865 | 0.393 | 0.549 | 0.923 | 0.789 | 0.578 | 1 | 0.451 | 0.813 | 1 | 0.756 | 0.787 | 0.688 | 0.79 | 0.749 | 0.734
7 | COc1nnc2ccc(N3CCC(c4ccc(OCCN5CCN(C)C(=O)[C@H]5C)cc4)CC3)nn12 [AZD5153] + CC1(C)CCC(CN2CCN(c3ccc(C(=O)NS(=O)(=O)c4ccc(NCC5CCOCC5)c([N+](=O)[O-])c4)c(Oc4cnc5[nH]ccc5c4)c3)CC2)=C(c2ccc(Cl)cc2)C1 [Venetoclax] (first compound max 1 µM, 7x7, partner max 1 µM) | 0.98 | 0.404 | 0.467 | 0.616 | 0.251 | 0.278 | 0.485 | 0.774 | 0.792 | 0.252 | 0.809 | 0.384 | 0.682 | 0.562 | 0.503 | 0.738 | 0.56 | 0.566 | 0.527 | 0.622
8 | COc1nnc2ccc(N3CCC(c4ccc(OCCN5CCN(C)C(=O)[C@H]5C)cc4)CC3)nn12 [AZD5153] + CCN(CCO)CCCOc1ccc2c(Nc3cc(CC(=O)Nc4cccc(F)c4)[nH]n3)ncnc2c1 [AZD2811] (first compound max 1 µM, 7x7, partner max 1 µM) | 1 | 0.484 | 0.481 | 0.685 | 0.425 | 0.459 | 0.542 | 0.936 | 0.773 | 0.366 | 0.905 | 0.367 | 0.815 | 0.993 | 0.486 | 0.728 | 0.783 | 0.869 | 0.571 | 0.645
9 | COc1nnc2ccc(N3CCC(c4ccc(OCCN5CCN(C)C(=O)[C@H]5C)cc4)CC3)nn12 [AZD5153] + C[C@@H]1COCCN1C2=NC(=NC(=C2)C3(CC3)[S@](=N)(=O)C)C4=C5C=CNC5=NC=C4 [AZD6738] (first compound max 1 µM, 7x7, partner max 10 µM) | 1 | 0.653 | 0.878 | 0.942 | 0.604 | 0.621 | 0.626 | 0.959 | 0.807 | 0.566 | 1 | 0.518 | 0.795 | 0.993 | 0.889 | 0.896 | 0.793 | 0.83 | 0.903 | 0.72
10 | COc1nnc2ccc(N3CCC(c4ccc(OCCN5CCN(C)C(=O)[C@H]5C)cc4)CC3)nn12 [AZD5153] + Cc1c2c(nn1C)CSCc1cc(n(C)n1)CSc1cc(c3ccccc3c1)OCCCc1c(C(=O)O)n(C)c3c-2c(Cl)ccc13 [AZD5991] (first compound max 1 µM, 7x7, partner max 1 µM) | 0.994 | 0.64 | 0.968 | 0.63 | 0.671 | 0.281 | 0.606 | 0.851 | 0.771 | 0.32 | 1 | 0.434 | 0.991 | 0.858 | 0.627 | 0.832 | 0.883 | 0.79 | 0.651 | 0.706
11 | COc1nnc2ccc(N3CCC(c4ccc(OCCN5CCN(C)C(=O)[C@H]5C)cc4)CC3)nn12 [AZD5153] + Cn1cnc2c(F)c(Nc3ccc(Br)cc3Cl)c(C(=O)NOCCO)cc21 [Selumetinib] (first compound max 1 µM, 7x7, partner max 10 µM) | 0.948 | 0.563 | 0.378 | 0.658 | 0.526 | 0.527 | 0.814 | 0.999 | 0.819 | 0.337 | 0.923 | 0.619 | 0.773 | 0.638 | 0.743 | 0.781 | 0.705 | 1 | 0.785 | 0.603
12 | Cc1c2c(nn1C)CSCc1cc(n(C)n1)CSc1cc(c3ccccc3c1)OCCCc1c(C(=O)O)n(C)c3c-2c(Cl)ccc13 [AZD5991] + C=CCn1c(=O)c2cnc(Nc3ccc(N4CCN(C)CC4)cc3)nc2n1-c1cccc(C(C)(C)O)n1 [AZD1775] (first compound max 1 µM, partner max 1 µM) | 0.581 | 0.626 | 0.966 | 0.502 | 0.946 | 0.271 | 0.551 | 0.781 | 0.399 | 0.596 | 1 | 0.283 | 0.812 | 1 | 0.548 | 0.617 | 0.986 | 0.684 | 0.6 | 0.467
